Source: EP3323415A1, “TREATMENT OF NEURODEGENERATIVE DISEASES” (Institut du Cerveau et de la Moelle Épinière-ICM, priority 2016, dated 2018)

System: midbrain DA (TH^+) neurons
Experiment: Spontaneous dopaminergic (DA) cell death model in midbrain cultures
Format: cell-based, Wistar rat
Details: chronic treatments for 10 days
Protocol: Animals were treated in accordance with the Guide for the Care and Use of Laboratory Animals (National Research Council, 1996), European Directive 86/609, and the guidelines of the local institutional animal care and use committee. Cultures were prepared from the ventral mesencephalon of gestational age 15.5 Wistar rat embryos (Janvier Breeding Center, Le Genest St Isle, France). Dissociated cells in suspension obtained by mechanical trituration of midbrain tissue pieces were seeded at a density of 1.2-1.5 10^5 cells/ cm^2 onto tissue culture supports precoated with 1 mg/ml polyethylenimine diluted in borate buffer pH 8.3 as described (Michel PP, et al., J Neurochem. 1997 Oct;69(4):1499-507). The cultures were then maintained in N5 medium supplemented with 5 mM glucose, 5% horse serum, and 0.5% fetal calf serum, except for the first 3 days in vitro (DIV), when the concentration of fetal calf serum was 2.5% to favor initial maturation of the cultures (Guerreiro S, et al., Mol Pharmacol. 2008 Oct;74(4):980-9). They were fed daily by replacing 70% of the medium. […]
We used a model system in which DA cell loss was spontaneous. […] For the spontaneous dopaminergic cell death model, TH^+ neurons were counted while for the neuro-inflammation model, the number of microglial cells was evaluated. […]

Compound Nc1ncnc2c1ncn2[C@@H]1O[C@H](COP(=O)(O)OP(=O)(O)OC[C@H]2O[C@@H]([n+]3cccc(C(=O)[O-])c3)[C@H](O)[C@@H]2O)[C@@H](O)[C@H]1OP(=O)(O)O [compound 1, 1-[(2R,3R,4S,5R)-5-[[[[(2R,3R,4R,5R)-5-(6-aminopurin-9-yl)-3-hydroxy-4-phosphonooxyoxolan-2-yl]methoxy-hydroxyphosphoryl]oxy-hydroxyphosphoryl]oxymethyl]-3,4-dihydroxyoxolan-2-yl]pyridin-1-ium-3-carboxylic acid] has an optimal neuroprotective concentrations of 30 µM.

In the case of CC(=O)OCOC(=O)c1ccc[n+]([C@@H]2O[C@H](COP(=O)(O)OP(=O)(OCOC(C)=O)OC[C@H]3O[C@@H](n4cnc5c(N)ncnc54)[C@H](OP(=O)(OCOC(C)=O)OCOC(C)=O)[C@@H]3O)[C@@H](O)[C@H]2O)c1 (stereo partly drawn) [compound 2, 1-((2R,3R,4S,5R)-5-((((((acetoxymethoxy)(((2R,3R,4R,5R)-5-(6-amino-9H-purin-9-yl)-4-((bis(acetoxymethoxy)phosphoryl)oxy)-3-hydroxytetrahydrofuran-2-yl)methoxy)phosphoryl)oxy)(hydroxy)phosphoryl)oxy)methyl)-3,4-dihydroxytetrahydrofuran-2-yl)-3-((acetoxymethoxy)carbonyl)pyridin-1-ium], the optimal neuroprotective concentrations is reported as 1 µM.
